Results published in ChEMBL document CHEMBL1127436, “[(3-Pyridylalkyl)piperidylidene]benzocycloheptapyridine derivatives as dual antagonists of PAF and histamine” (J Med Chem, 1994).

What was measured:
Assay type in all cases: functional
Mus musculus [1] = species on record: Mus musculus; assay: Dose required to inhibit PAF-induced mortality; conditions: read-out: ID50 (the source's name)
Oryctolagus cuniculus = species on record: Oryctolagus cuniculus; assay: Concentration required to inhibit PAF-induced maximum aggregation
Rattus norvegicus [2] = assay: Intravenous dose required to reduce the lowering of the arterial blood pressure caused by PAF; conditions: Rattus norvegicus, Arterial blood, iv; read-out: ID50 (the source's name)
Rattus norvegicus [3] = assay: Tested at 30 (mg/kg) dose for percent inhibition required to inhibit mortality in sensitized animals by histamine
Rattus norvegicus [4] = assay: Tested at 10 (mg/kg) intravenous dose for percent inhibition of the arterial blood pressure in normotensive rats caused by histamine
Cavia porcellus [5] = species on record: Cavia porcellus; assay: Tested for concentration required to inhibit H1 histamine -induced guinea pig ileum contraction
Mus musculus [6] = assay: Antiallergic activity was evaluated using active anaphylactic test after po administration in mice; conditions: read-out: ID50 (the source's name)
Rattus norvegicus [7] = assay: Tested at 10 (mg/kg) intravenous dose for percent inhibition required to reduce the lowering of the arterial blood pressure caused by histamine
Cavia porcellus [8] = species on record: Cavia porcellus; assay: Tested for concentration required to inhibit histamine -induced ileum contraction
Mus musculus [9] = assay: Antiallergic activity was evaluated using active anaphylactic test after po administration of 30 (mg/kg) in mice
Mus musculus [10] = assay: Tested for effect on central nervous system in mice at 100 mg/kg peroral dose for spontaneous motor activity (SMA) expressed as percentage relative to control; conditions: route oral
Rattus norvegicus [11] = species on record: Rattus norvegicus; assay: Tested for dose required to inhibit endotoxin induced mortality in rats; conditions: read-out: ID50 (the source's name)
Mus musculus [12] = species on record: Mus musculus; assay: Tested for dose required to inhibit endotoxin induced mortality in mice; conditions: read-out: ID50 (the source's name)
Rattus norvegicus [13] = species on record: Rattus norvegicus; assay: Tested for dose required to inhibit antigen induced increased permeability; conditions: read-out: ID50 (the source's name)
Mus musculus [14] = assay: Tested for effect on central nervous system in mice at 100 mg/kg peroral dose barbiturate-sleeping time (BST); conditions: route oral

Row | SMILES | ED50 (Mus musculus [1]) [mg/kg] | IC50 (Oryctolagus cuniculus) [nM] | Inhibition (Rattus norvegicus [4]) [%] | IC50 (Cavia porcellus [5]) [nM] | ED50 (Mus musculus [6]) [mg/kg] | also measured
1 | [O-][n+]1cccc(CN2CCC(=C3c4ccc(Cl)cc4CCc4cccnc43)CC2)c1 | > 30 | 14000 |  |  |  | ED50 (Rattus norvegicus [2]): > 5 mg/kg; Inhibition (Rattus norvegicus [3]): 56%
2 | O=C(c1ccc(O)nc1)N1CCC(=C2c3ccc(Cl)cc3CCc3cccnc32)CC1 | > 3 | 1500 | 67 | 390 | > 30 | ED50 (Rattus norvegicus [2]): 1.5 mg/kg
3 | COc1ncccc1CN1CCC(=C2c3ccc(Cl)cc3CCc3cccnc32)CC1 |  | 6000 |  |  | 17 | ED50 (Rattus norvegicus [2]): > 5 mg/kg
4 | Clc1ccc2c(c1)CCc1cccnc1C2=C1CCN(Cc2cccnc2)CC1 |  | 4000 | 83.6 | 93 | 6.7 | 
5 | O=C(c1cc[n+]([O-])cc1)N1CCC(=C2c3ccc(Cl)cc3CCc3cccnc32)CC1 |  | 220 |  |  | 12 | Inhibition (Rattus norvegicus [7]): 46.2%; IC50 (Cavia porcellus [8]): 210 nM
6 | Clc1ccc2c(c1)CCc1cccnc1C2=C1CCN(Cc2cccnc2Cl)CC1 |  | > 100000 |  |  | 4.5 | IC50 (Cavia porcellus [8]): 350 nM
7 | Clc1ccc2c(c1)CCc1cccnc1C2=C1CCN(Cc2ccc(Cl)nc2)CC1 | 20 | > 100000 |  |  | 6.9 | 
8 | Cc1ccncc1CN1CCC(=C2c3ccc(Cl)cc3CCc3cccnc32)CC1 | 10 | 15000 |  | 35 |  | Inhibition (Mus musculus [9]): 56%
9 | Cc1ncccc1CN1CCC(=C2c3ccc(Cl)cc3CCc3cccnc32)CC1 |  | 13000 |  | 270 |  | Inhibition (Mus musculus [9]): 50%
10 | O=C(O)c1cncc(CN2CCC(=C3c4ccc(Cl)cc4CCc4cccnc43)CC2)c1 | > 30 | 85000 |  | 350 | 6.5 | ED50 (Rattus norvegicus [2]): > 5 mg/kg
11 | CN1C(=O)CN=C(c2ccccc2)c2cc(Cl)ccc21 [DIAZEPAM] |  |  |  |  |  | Relative to control (Mus musculus [10]): 54%
12 | CN(C)CCOC(c1ccccc1)c1ccccc1 [DIPHENHYDRAMINE] |  |  |  |  |  | ED50 (Rattus norvegicus [11]): > 5 mg/kg; ED50 (Mus musculus [12]): > 10 mg/kg
13 | CCOC(=O)N1CCC(=C2c3ccc(Cl)cc3CCc3cccnc32)CC1 [LORATADINE] |  |  | 66.3 |  | 19 | ED50 (Rattus norvegicus [13]): 2.4 mg/kg; ED50 (Rattus norvegicus [11]): > 5 mg/kg; X (Mus musculus [14]): 320 min; ED50 (Mus musculus [12]): > 10 mg/kg; Relative to control (Mus musculus [10]): 106%
14 | Cc1cncc(CN2CCC(=C3c4ccc(Cl)cc4CCc4cccnc43)CC2)c1 [RUPATADINE] |  | 3700 | 89 |  | 13 | ED50 (Rattus norvegicus [13]): 1.2 mg/kg; ED50 (Rattus norvegicus [11]): 0.5 mg/kg; X (Mus musculus [14]): 138 min; ED50 (Mus musculus [12]): 1.2 mg/kg; Relative to control (Mus musculus [10]): 97%
15 | CC(=O)N1CCC(=C2c3ccc(Cl)cc3CCc3cccnc32)CC1 [SCH-37370] |  | 840 | 55.1 | 100 | 19 | ED50 (Rattus norvegicus [13]): 10 mg/kg; ED50 (Rattus norvegicus [11]): > 5 mg/kg; X (Mus musculus [14]): 296 min; ED50 (Mus musculus [12]): > 10 mg/kg
16 | CC(C)(C)c1ccc(C(O)CCCN2CCC(C(O)(c3ccccc3)c3ccccc3)CC2)cc1 (configuration not stated) [TERFENADINE] |  |  |  |  |  | X (Mus musculus [14]): 133 min; Relative to control (Mus musculus [10]): 90%
